Usually TGI stands for the concentration giving total growth inhibition. Read a low TGI as more potent growth arrest.

Holding throughout (assay): DTP human tumour cell line panel, 48 h
Experiment [1] concerns MALME-3M melanoma.
In experiment [2] the test system is A498 renal.
Experiment [3] concerns NCI-H23 lung.
Experiment [4] has as its system SF-295 CNS.
Experiment [5] concerns MDA-MB-231 breast.
The subject of experiment [6] is DU-145 prostate.
The test system of experiment [7] is UACC-62 melanoma.
The subject of experiment [8] is EKVX NSCLC.
In experiment [9] the test system is ACHN renal.
The subject of experiment [10] is OVCAR-3 ovarian.
The subject of experiment [11] is SK-MEL-2 melanoma.
Experiment [12] deals with MCF7 breast.
Experiment [13] has as its system SF-539 CNS.
Experiment [14] relates to T-47D breast.
In experiment [15] the test system is SF-268 CNS.
For experiment [16], the system named is CCRF-CEM leukemia.
Experiment [17] concerns HCT-15 colon.
Experiment [18] concerns U251 CNS.
In experiment [19] the test system is SW-620 colon.
In experiment [20] the test system is OVCAR-4 ovarian.

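1) Cells in 96-well plates. 2) Compound, 48 h, 5 concentrations. 3) Linear interpolation between surrounding doses. 4) Unreached endpoint = highest concentration. TGI marks complete inhibition of growth.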

As to `CC1CC/C(=C\c2ccc(N(C)C)cc2)C2=C1C(c1ccc(N(C)C)cc1)NC(=S)N2` (centres undefined), the concentration for total growth inhibition (TGI) in experiment [1], in [2], in experiment [3], in experiment [4], in experiment [5] and in [6] was over 100 µM throughout. For the same compound, the total growth inhibition concentration (TGI) in [7], in [8], in experiment [9], in experiment [10], in [11] and in [12] was over 100 µM in each case. Further, the TGI in [13], in [14], in [15], in experiment [16], in experiment [17] and in [18] was over 100 µM throughout. Moreover, the concentration for total growth inhibition (TGI) in [19] was over 100 µM.

Consider `COC(=O)C1=COC(OC2OC(CO)C(O)C(O)C2O)C2C3CN4CCc5c([nH]c6ccccc56)C4(CC12)O3` (centres undefined), for which the TGI in experiment [1], in experiment [2], in [3], in [4], in experiment [5] and in experiment [6] was over 100 µM throughout. For the same compound, the concentration for total growth inhibition (TGI) in experiment [7], in [8], in experiment [20], in experiment [9], in experiment [10] and in experiment [11] was over 100 µM throughout. In addition, the TGI in [12] was over 100 µM; in experiment [13] it was over 100 µM; in experiment [14], over 100 µM; in [15] it was 91.1 µM; in experiment [17] it was over 100 µM; in [18] it was over 100 µM. The compound further returned a total growth inhibition concentration (TGI) in experiment [19] of over 100 µM.

Consider `CC1(C)C2CC(O)C1CCC2=O` (centres undefined), for which the concentration for total growth inhibition (TGI) in experiment [1], in [2], in experiment [3], in experiment [4], in experiment [5] and in experiment [6] was over 100 µM throughout. Besides, the TGI in [7], in experiment [20], in [9], in experiment [10], in experiment [11] and in experiment [12] was over 100 µM each time. Also, the concentration for total growth inhibition (TGI) in experiment [13], in experiment [14], in [15], in experiment [16], in experiment [17] and in [18] was over 100 µM throughout.

For `Cc1ccc(C(=O)Cn2c(C(=O)/C=C/c3cccs3)nc3ccccc32)cc1`, the TGI in [1], in experiment [2], in experiment [3], in experiment [5], in experiment [6] and in [7] was over 100 µM each time. In addition, the total growth inhibition concentration (TGI) in experiment [20] was over 100 µM; in experiment [9] it was over 100 µM; in experiment [10] it was over 100 µM; in experiment [11], 48.3 µM; in experiment [12] it was over 100 µM; in [13], over 100 µM. For the same compound, the concentration for total growth inhibition (TGI) in experiment [14] was over 100 µM; in experiment [15], over 100 µM; in experiment [16], 38.5 µM; in experiment [17], over 100 µM; in experiment [18], over 100 µM; in experiment [19], over 100 µM.

In the case of `O=c1[nH]nc(Cc2ccccc2)n1CCCl`, the TGI in [1], in experiment [2], in experiment [3], in experiment [4], in experiment [5] and in experiment [6] was over 100 µM in each case. In addition, the TGI in experiment [7], in experiment [8], in [20], in experiment [10], in [11] and in experiment [12] was over 100 µM in each case. For the same compound, the TGI in [13], in [14], in [15], in [16], in experiment [17] and in experiment [18] was over 100 µM each time. In experiment [19], this compound showed a TGI of over 100 µM.

Consider `CCOC(=O)c1cc2c3c(c(C(C)=O)c(O)c2[nH]1)N(C(C)=O)CC3`, for which the total growth inhibition concentration (TGI) in experiment [1], in experiment [2], in experiment [3], in [4], in experiment [5] and in experiment [6] was over 100 µM in each case. In addition, the TGI in [7], in [8], in experiment [9], in experiment [10], in experiment [11] and in experiment [12] was over 100 µM in each case. Moreover, the concentration for total growth inhibition (TGI) in [13], in [14], in experiment [15], in experiment [16], in experiment [17] and in [18] was over 100 µM each time. The total growth inhibition concentration (TGI) in [19] is over 100 µM.

For the compound `CCOC(=O)C1C(C)C2(C#N)C(=N)OC1(C)C2(C#N)C#N` (centres undefined), the total growth inhibition concentration (TGI) in experiment [1], in experiment [2], in experiment [3], in experiment [4], in [5] and in experiment [6] was over 100 µM in each case. Also, the TGI in [7], in experiment [8], in experiment [9], in experiment [11], in experiment [12] and in experiment [13] was over 100 µM throughout. Moreover, the TGI in experiment [14], in [15], in experiment [17], in experiment [18] and in [19] was over 100 µM throughout.
